According to patent EP3498298A1, “THE USE OF SGC STIMULATORS AND SGC ACTIVATORS ALONE OR IN COMBINATION WITH PDE5 INHIBITORS FOR THE TREATMENT OF BONE DISORDERS INCLUDING OSTEOGENESIS IMPERFECTA (OI)” (Bayer AG, priority 2017, dated 2019):

Experiments:
[1] = tested on: B6C3Fe a/a-Col1a2 oim /J (OI mice) termed as HOM; experiment: 16 week chronic treatment study, micro-CT of femora (bone morphology and architecture) in OI mice; assay type: in vivo; conditions: 300 ppm (300mg/kg chow), 16 weeks; treated female HOM mice compared to untreated female HOM mice; P < 0.05
From the text: (§1) Preferentially mice were used, especially transgenic mice (B6C3Fe a/a-Col1a2 oim /J (Jackson Laboratories)) (Chipman et al. 1993, McBride et al. 1998). These so called OI-mice (OIM, also called HOM mice) carry a mutation in the collagen gen (Col1a2) which reflects the phenotype and clinical situation of patients with […] OI. For the treatment homozygous OIM are used and compared with WT mice which serve as control.
(§2) As read-outs were preferentially used: • semiquantitative RT/PCR (TaqMan PCR) to assess gene expression according to standard procedures • histopathology to assess bone morphology according to standard procedures • high-resolution micro-CTscanner (µCT 35; Scanco Medical AG, Briittisellen, Switzerland) to evaluate bone morphology and architecture (Micro-CT) • three-point bending test to assess mechanical properties of the femora (Mechanical testing)
(§3) A high-resolution micro-CTscanner (µCT 35; Scanco Medical AG, Briittisellen, Switzerland) was used to evaluate bone morphology and architecture. […] The trabecular and cortical parameters were determined according to the guidelines for the assessment of bone microstructure with micro-CT (Bouxsein et al., 2010). […]

wild-type mice (WT) = experiment: 16 week chronic treatment study, micro-CT of femora (bone morphology and architecture) in wild-type mice; assay type: in vivo; conditions: 300 ppm (300mg/kg chow), 16 weeks
From the text: as §1, §2, §3

[2] = tested on: ovariectomized female mice; conditions: intraperitoneally, 10µg/kg bolus dose; cited from earlier work
mice = conditions: cited from earlier work

**Q.** Which “trabecular number (Tb.N)” value [1] does the source give for `Nc1nc(-c2nn(Cc3ccccc3F)c3ncccc23)ncc1C1CC1` [BAY 41-2272, 3-(4-amino-5-cyclopropylpyrimidin-2-yl)-1-(2-fluorobenzyl)-1H-pyrazolo[3,4-b]pyridine] here?
**A.** increased

**Q.** And the “trabecular separation (Tb.Sp)” value [1]?
**A.** decreased

**Q.** What about the “structural properties of both trabecular and cortical bone” value (wild-type mice (WT)) of the same compound?
**A.** no effect

**Q.** With `O=C(O)CCCCN(CCc1ccccc1OCc1ccc(CCc2ccccc2)cc1)Cc1ccc(C(=O)O)cc1` [cinaciguat] as the compound, how does the bone density [2] read?
**A.** could increase bone density

**Q.** Which fracture healing (mice) does the source give for `CCCc1nn(C)c2c(=O)[nH]c(-c3cc(S(=O)(=O)N4CCN(C)CC4)ccc3OCC)nc12` [sildenafil, 3-[2-ethoxy-5-(4-methylpiperazin-1-yl)sulfonyl-phenyl]-7-methy1-9-propy1-2,4,7,8-tetrazabicyclo [4.3.0]nona-3,8,10-trien-5-one] here?
**A.** accelerates fracture healing
